This note sets out measurements from patent US6593357B1, “Pyrazole compositions useful as inhibitors of ERK” (Vertex Pharmaceuticals Incorporated, priority 2000, dated 2003).

One assay addresses ERK2 (Homo sapiens, UniProt P28482). Kind of assay: ERK2 inhibition, spectrophotometric coupled-enzyme assay. To be noted: activated ERK2 10 nM, 65 μM ATP, 30° C., pH 7.5; read-out: ERK2 Inhibitory Activity (Ki class). The assay is classed as biochemical.
A further assay addresses T1, Aurora2 (Homo sapiens, UniProt O14965).
T1 sequence (O14965 1-403): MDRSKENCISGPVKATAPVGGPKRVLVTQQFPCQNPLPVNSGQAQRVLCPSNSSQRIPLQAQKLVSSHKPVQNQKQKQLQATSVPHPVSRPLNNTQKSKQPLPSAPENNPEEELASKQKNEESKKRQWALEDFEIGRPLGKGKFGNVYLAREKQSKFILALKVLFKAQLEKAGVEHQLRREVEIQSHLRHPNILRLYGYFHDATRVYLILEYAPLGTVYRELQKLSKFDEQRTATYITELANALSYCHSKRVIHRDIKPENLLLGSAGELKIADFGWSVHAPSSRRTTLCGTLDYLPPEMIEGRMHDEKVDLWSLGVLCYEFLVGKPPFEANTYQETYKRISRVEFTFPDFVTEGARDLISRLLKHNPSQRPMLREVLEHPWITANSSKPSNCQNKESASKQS
Kind of assay: Aurora inhibition, standard coupled enzyme assay. The assay is classed as biochemical. To be noted: 40 μM ATP, 30° C.; read-out: Aurora2 Inhibitory Activity (IC50 class). On the procedure:
Compounds were screened in the following manner for their ability to inhibit Aurora using a standard coupled enzyme assay. To an assay stock buffer solution containing 0.1M HEPES 7.5, 10 mM MgCl2, 25 mM NaCl, 2.5 mM phosphoenolpyruvate, 300 μM NADH, 30 μg/mL pyruvate kinase, 10 μg/mL lactate dehydrogenase, 40 μM ATP, and 800 μM peptide (LRRASLG, American Peptide, Sunnyvale, Calif.) was added a 30 μM solution of the compound in DMSO and the resulting mixture incubated at 30° C. for 10 min. The reaction was initiated by the addition of 10 μL of 70 nM Aurora and 1 mM DTT. The rates of reaction were obtained by monitoring absorbance at 340 nm over a 5 minute read time at 30° C. using a BioRad Ultramark plate reader (Hercules, Calif.). The IC50 was determined from the rate data as a function of inhibitor concentration.
The compound numbers correspond to the compound numbers in Table 1.

Assay [1] relates to Colon cancer cells (HT-29 cell line). As to the kind of experiment: ERK inhibition cell proliferation assay (3H-thymidine uptake). The assay is classed as cell-based. The conditions noted are these: Homo sapiens, 3 days. On the procedure:
Compounds were assayed for the inhibition of ERK2 by a cell proliferation assay. In this assay, a complete media was prepared by adding 10% fetal bovine serum and penicillin/streptomycin solution to RPMI 1640 medium (JRH Biosciences). Colon cancer cells (HT-29 cell line) were added to each of 84 wells of a 96 well plate at a seeding density of 10,000 cells/well/150 μL. The cells were allowed to attach to the plate by incubating at 37° C. for 2 hours. A solution of test compound was prepared in complete media by serial dilution to obtain the following concentrations: 20 μM, 6.7 μM, 2.2 μM, 0.74 μM, 0.25 μM, and 0.08 μM. The test compound solution (50 μL) was added to each of 72 cell-containing wells. To the 12 remaining cell-containing wells, only complete media […] was added to form a control group in order to measure maximal proliferation. To the remaining 12 empty wells, complete media was added to form a vehicle control group in order to measure background. The plates were incubated at 37° C. for 3 days. A stock solution of ^3H-thymidine (1 mCi/mL, New England Nuclear, Boston, Mass.) was diluted to 20 μCi/mL in RPMI medium then 20 μL of this solution was added to each well. The plates were further incubated at 37° C. for 8 hours then harvested and analyzed for ^3H-thymidine uptake using a liquid scintillation counter.

ERK2, sequence (P28482 whole entry): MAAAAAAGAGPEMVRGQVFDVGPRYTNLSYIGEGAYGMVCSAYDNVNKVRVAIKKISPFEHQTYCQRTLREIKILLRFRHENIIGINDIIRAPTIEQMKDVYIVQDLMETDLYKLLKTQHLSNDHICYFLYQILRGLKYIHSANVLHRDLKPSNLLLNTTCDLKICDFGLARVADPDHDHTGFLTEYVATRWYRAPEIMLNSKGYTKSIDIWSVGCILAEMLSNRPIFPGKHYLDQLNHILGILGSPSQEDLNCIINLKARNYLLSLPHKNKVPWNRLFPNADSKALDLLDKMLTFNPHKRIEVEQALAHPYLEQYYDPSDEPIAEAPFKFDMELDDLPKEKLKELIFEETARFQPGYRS

A word on the Ki: it is a dissociation constant, usually derived from enzyme kinetics or from competition with a known ligand. As a reminder, the IC50 is the point on the concentration scale where inhibition reaches its midpoint. Regarding `O=C(NCc1ccncc1)c1cc(-c2[nH]ncc2-c2ccc(F)c(Cl)c2)c[nH]1` [II-70], the Ki on ERK2 was below 1 µM. Moreover, the IC50 on Aurora2 was in the range of 5 to 10 µM.

Regarding `O=C(NCc1ccncc1)c1cc(-c2[nH]ncc2-c2cc(F)ccc2F)c[nH]1` [II-98], the Ki at ERK2 was below 1 µM. The IC50 on Aurora2 was in the range of 5 to 10 µM. In the case of `O=C(NCc1cccnc1)c1cc(-c2[nH]ncc2-c2cc(F)ccc2F)c[nH]1` [II-181], on Aurora2, the IC50 was in the range of 5 to 10 µM. Turning to `COc1ccc(-c2cn[nH]c2-c2c[nH]c(C(=O)NCc3cccnc3)c2)cc1OC` [II-215], the 50% inhibitory concentration (IC50) on Aurora2 fell in the range of 5 to 10 µM. The same measure, in the same setting: to `O=C(NCCc1cnc[nH]1)c1cc(-c2[nH]ncc2-c2cccc(Cl)c2F)c[nH]1` [II-255] belongs 5 to 10 µM.

Regarding `O=C(NOCc1ccccc1)c1cc(-c2[nH]ncc2-c2cc(F)ccc2F)c[nH]1` [II-113], the inhibition constant (Ki) at ERK2 was below 1 µM. Also, the IC50 on Aurora2 was below 5 µM. Regarding `O=C(NCCc1cnc[nH]1)c1cc(-c2[nH]ncc2-c2cc(Cl)cc(Cl)c2)c[nH]1` [II-266], the IC50 at Aurora2 is 5 to 10 µM.

On to `O=C(NCc1cccnc1)c1cc(-c2[nH]ncc2-c2ccc(F)c(Cl)c2)c[nH]1` [II-101], for which the Ki on ERK2 was below 1 µM. The IC50 at Aurora2 was below 5 µM. Consider `O=C(NCCc1cnc[nH]1)c1cc(-c2[nH]ncc2-c2ccc(Cl)c(Cl)c2)c[nH]1` [II-254], for which the IC50 on Aurora2 was below 5 µM. `O=C(NCC1CCCO1)c1cc(-c2[nH]ncc2-c2cccc(Cl)c2F)c[nH]1` (centres unmarked) [II-106]: the Ki at ERK2 was below 1 µM. At Aurora2, the IC50 was 5 to 10 µM. As to `CCN(C)C(=O)c1cc(-c2[nH]ncc2-c2ccc(OC)c(OC)c2)c[nH]1` [II-258], the IC50 at Aurora2 was above 10 µM. As to `O=C(NCc1cccnc1)c1cc(-c2[nH]ncc2-c2cccc(Cl)c2F)c[nH]1` [II-114], at ERK2, the Ki is below 1 µM. Also, the IC50 at Aurora2 is below 5 µM. The like results for `O=C(NOCc1ccccc1)c1cc(-c2[nH]ncc2-c2cccc(F)c2F)c[nH]1` [II-103] were, in that order, below 1 µM and 5 to 10 µM. Take `O=C(NCCc1cnc[nH]1)c1cc(-c2[nH]ncc2-c2cccc(Cl)c2)c[nH]1` [II-142]: the Ki on ERK2 was 1 to 5 µM. In addition, the IC50 on Aurora2 was below 5 µM. Turning to `COc1ccc(-c2cn[nH]c2-c2c[nH]c(C(=O)NOCc3ccccc3)c2)cc1OC` [II-260], the IC50 on Aurora2 is above 10 µM.

Turning to `O=C(NOCc1ccccc1)c1cc(-c2[nH]ncc2-c2cccc(Cl)c2)c[nH]1` [II-57], at Aurora2, the IC50 is below 5 µM. On to `COc1ccc(-c2cn[nH]c2-c2c[nH]c(C(=O)NCC3CCCO3)c2)cc1OC` (centres unmarked) [II-218], for which the IC50 on Aurora2 fell in the range of 5 to 10 µM. On to `O=C(NOCc1ccccc1)c1cc(-c2[nH]ncc2-c2ccc(F)c(Cl)c2)c[nH]1` [II-77], for which the Ki at ERK2 was below 1 µM. For the same molecule, the concentration for half-maximal inhibition (IC50) on Aurora2 is below 5 µM.

Regarding `O=C(NCC1CCCO1)c1cc(-c2[nH]ncc2-c2cc(F)ccc2F)c[nH]1` (centres unmarked) [II-188], the IC50 at Aurora2 is above 10 µM.

Turning to `O=C(c1cc(-c2n[nH]cc2-c2cc(Cl)cc(Cl)c2)c[nH]1)N1CCOCC1` [II-112], at ERK2, the Ki is below 1 µM. The IC50 at Aurora2 is below 5 µM. As for `O=C(NCc1ccncc1)c1cc(-c2[nH]ncc2-c2ccc(F)c(F)c2)c[nH]1` [II-88], the Ki at ERK2 was below 1 µM. For the same molecule, the IC50 on Aurora2 lay in the range of 5 to 10 µM. Turning to `O=C(NCc1ccncc1)c1cc(-c2[nH]ncc2-c2ccc(Cl)cc2)c[nH]1` [II-211], on Aurora2, the IC50 was 5 to 10 µM.

With `CCN(C)C(=O)c1cc(-c2[nH]ncc2-c2ccc(F)c(Cl)c2)c[nH]1` [II-108], at ERK2, the Ki was below 1 µM. Also, the IC50 at Aurora2 was 5 to 10 µM.

Consider `CCN(C)C(=O)c1cc(-c2n[nH]cc2-c2cccc(Cl)c2)c[nH]1` [II-93], for which the IC50 at Aurora2 is below 5 µM. Turning to `CCN(C)C(=O)c1cc(-c2[nH]ncc2-c2cccc(Cl)c2F)c[nH]1` [II-81], the Ki on ERK2 was below 1 µM. Moreover, the IC50 on Aurora2 is below 5 µM. In the case of `O=C(NCc1cccnc1)c1cc(-c2[nH]ncc2-c2cc(Cl)cc(Cl)c2)c[nH]1` [II-76], the Ki at ERK2 was below 1 µM. Also, the IC50 on Aurora2 is below 5 µM. Take `O=C(NCc1ccncc1)c1cc(-c2[nH]ncc2-c2cccc(F)c2F)c[nH]1` [II-141]: the Ki at ERK2 is 1 to 5 µM. Besides, on Aurora2, the IC50 is below 5 µM. Take `O=C(NCCc1cnc[nH]1)c1cc(-c2[nH]ncc2-c2ccc(Cl)cc2)c[nH]1` [II-252]: at Aurora2, the IC50 lay in the range of 5 to 10 µM.

`O=C(NOCc1ccccc1)c1cc(-c2[nH]ncc2-c2cccc(Cl)c2F)c[nH]1` [II-82]: the Ki on ERK2 was below 1 µM. Moreover, the IC50 at Aurora2 was below 5 µM. Turning to `COc1ccc(-c2cn[nH]c2-c2c[nH]c(C(=O)NCC3CCCN(C(=O)OC(C)(C)C)C3)c2)cc1OC` (centres unmarked) [II-259], the IC50 on Aurora2 lay in the range of 5 to 10 µM. Consider `O=C(NOCc1ccccc1)c1cc(-c2[nH]ncc2-c2ccc(F)c(F)c2)c[nH]1` [II-85], for which the Ki at ERK2 is below 1 µM. Further, the IC50 at Aurora2 is 5 to 10 µM. For the molecule `COc1ccc(-c2cn[nH]c2-c2c[nH]c(C(=O)NCc3ccncc3)c2)cc1OC` [II-212], the IC50 at Aurora2 was 5 to 10 µM. Still for that read-out and setting: to `O=C(NCc1ccncc1)c1cc(-c2[nH]ncc2-c2ccc3c(c2)OCO3)c[nH]1` [II-213] belongs 5 to 10 µM. In assay [1], `O=C(NC(CO)c1ccccc1)c1cc(-c2[nH]ncc2-c2cccc(Br)c2)c[nH]1` (centres unmarked) [II-45] yielded an IC50 below 10 µM. Also, on ERK2, the Ki is below 1 µM. Take `O=C(NC(CO)c1ccccc1)c1cc(-c2[nH]ncc2-c2cccc(Br)c2)c[nH]1` (centres unmarked) [II-72]: at ERK2, the Ki was below 1 µM. Also, the IC50 at Aurora2 is 5 to 10 µM. Regarding `O=C(NOCc1ccccc1)c1cc(-c2[nH]ncc2-c2ccc(Cl)c(Cl)c2)c[nH]1` [II-54], the Ki at ERK2 was below 1 µM. In addition, the IC50 on Aurora2 fell in the range of 5 to 10 µM. For the molecule `O=C(NCc1cccnc1)c1cc(-c2[nH]ncc2-c2ccc(Cl)cc2)c[nH]1` [II-214], on Aurora2, the IC50 was in the range of 5 to 10 µM. Regarding `O=C(NCc1ccncc1)c1cc(-c2[nH]ncc2-c2cccc(Cl)c2F)c[nH]1` [II-115], at ERK2, the Ki was below 1 µM. For the same molecule, the IC50 on Aurora2 was below 5 µM.

Turning to `O=C(NOCc1ccccc1)c1cc(-c2[nH]ncc2-c2cc(Cl)cc(Cl)c2)c[nH]1` [II-51], on ERK2, the Ki was below 1 µM. Besides, the IC50 at Aurora2 was 5 to 10 µM. As for `O=C(NOCc1ccccc1)c1cc(-c2[nH]ncc2-c2ccc(Cl)cc2)c[nH]1` [II-99], at ERK2, the Ki is below 1 µM. For the same molecule, the IC50 at Aurora2 was below 5 µM.

For the molecule `COc1ccc(-c2cn[nH]c2-c2c[nH]c(C(=O)N3CCOCC3)c2)cc1OC` [II-228], the IC50 at Aurora2 is below 5 µM.

`CCN(C)C(=O)c1cc(-c2[nH]ncc2-c2cc(Cl)cc(Cl)c2)c[nH]1` [II-66]: the Ki at ERK2 is below 1 µM. On Aurora2, the IC50 fell in the range of 5 to 10 µM. As for `CCN(C)C(=O)c1cc(-c2[nH]ncc2-c2ccc(Cl)c(Cl)c2)c[nH]1` [II-64], the Ki at ERK2 is below 1 µM. Besides, the IC50 on Aurora2 was below 5 µM.

Turning to `O=C(NCc1ccncc1)c1cc(-c2[nH]ncc2-c2ccc(Cl)c(Cl)c2)c[nH]1` [II-61], the Ki at ERK2 is below 1 µM. In addition, the IC50 at Aurora2 was below 5 µM. For the molecule `O=C(NCc1cccnc1)c1cc(-c2[nH]ncc2-c2ccc3c(c2)OCO3)c[nH]1` [II-216], the IC50 at Aurora2 was in the range of 5 to 10 µM.
